Assay results from ChEMBL document CHEMBL4138146, “A Schmidt rearrangement-mediated synthesis of novel tetrahydro-benzo[1,4]diazepin-5-ones as potential anticancer and antiprotozoal agents” (Eur J Med Chem, 2017).
≈ marks a conversion by molar mass, not a printed value.

Key:
[1] = test system: CCRF-CEM; experiment: Growth inhibition of human CCRF-CEM cells assessed as cell growth at 10 uM incubated for 48 hrs by sulforhodamine B assay relative to control; assay type: functional; conditions: read-out: Activity
[2] = test system: HL-60(TB); experiment: Growth inhibition of human HL-60(TB) cells assessed as cell growth at 10 uM incubated for 48 hrs by sulforhodamine B assay relative to control; assay type: functional; conditions: HL-60, 48 h, read-out: Activity
[3] = test system: K562; experiment: Growth inhibition of human K562 cells assessed as cell growth at 10 uM incubated for 48 hrs by sulforhodamine B assay relative to control; assay type: functional; conditions: K562, 48 h, read-out: Activity
[4] = test system: MOLT-4; experiment: Growth inhibition of human MOLT4 cells assessed as cell growth at 10 uM incubated for 48 hrs by sulforhodamine B assay relative to control; assay type: functional; conditions: MOLT-4, 48 h, read-out: Activity
[5] = test system: SR; experiment: Growth inhibition of human SR cells assessed as cell growth at 10 uM incubated for 48 hrs by sulforhodamine B assay relative to control; assay type: functional; conditions: read-out: Activity
[6] = test system: EKVX; experiment: Growth inhibition of human EKVX cells assessed as cell growth at 10 uM incubated for 48 hrs by sulforhodamine B assay relative to control; assay type: functional; conditions: read-out: Activity
[7] = test system: HOP-62; experiment: Growth inhibition of human HOP62 cells assessed as cell growth at 10 uM incubated for 48 hrs by sulforhodamine B assay relative to control; assay type: functional; conditions: HOP-62, 48 h, read-out: Activity
[8] = test system: HOP-92; experiment: Growth inhibition of human HOP92 cells assessed as cell growth at 10 uM incubated for 48 hrs by sulforhodamine B assay relative to control; assay type: functional; conditions: HOP-92, 48 h, read-out: Activity
[9] = test system: NCI-H226; experiment: Growth inhibition of human NCI-H226 cells assessed as cell growth at 10 uM incubated for 48 hrs by sulforhodamine B assay relative to control; assay type: functional; conditions: NCI-H226, 48 h, read-out: Activity
[10] = test system: NCI-H322M; experiment: Growth inhibition of human NCI-H322M cells assessed as cell growth at 10 uM incubated for 48 hrs by sulforhodamine B assay relative to control; assay type: functional; conditions: read-out: Activity
[11] = test system: HCC 2998; experiment: Growth inhibition of human HCC2998 cells assessed as cell growth at 10 uM incubated for 48 hrs by sulforhodamine B assay relative to control; assay type: functional; conditions: HCC 2998, 48 h, read-out: Activity
[12] = test system: HCT-116; experiment: Growth inhibition of human HCT116 cells assessed as cell growth at 10 uM incubated for 48 hrs by sulforhodamine B assay relative to control; assay type: functional; conditions: HCT-116, 48 h, read-out: Activity
[13] = test system: HCT-15; experiment: Growth inhibition of human HCT15 cells assessed as cell growth at 10 uM incubated for 48 hrs by sulforhodamine B assay relative to control; assay type: functional; conditions: HCT-15, 48 h, read-out: Activity
[14] = test system: SF-268; experiment: Growth inhibition of human SF268 cells assessed as cell growth at 10 uM incubated for 48 hrs by sulforhodamine B assay relative to control; assay type: functional; conditions: SF-268, 48 h, read-out: Activity
[15] = test system: SF-295; experiment: Growth inhibition of human SF295 cells assessed as cell growth at 10 uM incubated for 48 hrs by sulforhodamine B assay relative to control; assay type: functional; conditions: SF-295, 48 h, read-out: Activity
[16] = test system: SNB-19; experiment: Growth inhibition of human SNB19 cells assessed as cell growth at 10 uM incubated for 48 hrs by sulforhodamine B assay relative to control; assay type: functional; conditions: SNB-19, 48 h, read-out: Activity
[17] = test system: M14; experiment: Growth inhibition of human M14 cells assessed as cell growth at 10 uM incubated for 48 hrs by sulforhodamine B assay relative to control; assay type: functional; conditions: M14, 48 h, read-out: Activity
[18] = test system: OVCAR-5; experiment: Growth inhibition of human OVCAR5 cells assessed as cell growth at 10 uM incubated for 48 hrs by sulforhodamine B assay relative to control; assay type: functional; conditions: OVCAR-5, 48 h, read-out: Activity
[19] = test system: RXF 393; experiment: Growth inhibition of human RXF393 cells assessed as cell growth at 10 uM incubated for 48 hrs by sulforhodamine B assay relative to control; assay type: functional; conditions: RXF 393, 48 h, read-out: Activity
[20] = test system: SN12C; experiment: Growth inhibition of human SN12C cells assessed as cell growth at 10 uM incubated for 48 hrs by sulforhodamine B assay relative to control; assay type: functional; conditions: read-out: Activity
[21] = test system: UO-31; experiment: Growth inhibition of human UO31 cells assessed as cell growth at 10 uM incubated for 48 hrs by sulforhodamine B assay relative to control; assay type: functional; conditions: UO-31, 48 h, read-out: Activity
[22] = test system: DU-145; experiment: Growth inhibition of human DU145 cells assessed as cell growth at 10 uM incubated for 48 hrs by sulforhodamine B assay relative to control; assay type: functional; conditions: DU-145, 48 h, read-out: Activity
[23] = test system: MCF7; experiment: Growth inhibition of human MCF7 cells assessed as cell growth at 10 uM incubated for 48 hrs by sulforhodamine B assay relative to control; assay type: functional; conditions: MCF7, 48 h, read-out: Activity
[24] = test system: T47D; experiment: Growth inhibition of human T47D cells assessed as cell growth at 10 uM incubated for 48 hrs by sulforhodamine B assay relative to control; assay type: functional; conditions: read-out: Activity
[25] = test system: MDA-MB-468; experiment: Growth inhibition of human MDA-MB-468 cells assessed as cell growth at 10 uM incubated for 48 hrs by sulforhodamine B assay relative to control; assay type: functional; conditions: MDA-MB-468, 48 h, read-out: Activity
[26] = test system: U-937; experiment: Cytotoxicity against human U937 cells after 72 hrs by MTT assay; assay type: functional; conditions: U-937, 72 h, read-out: LC50 (the source's name)
[27] = test system: Plasmodium falciparum; experiment: Antimalarial activity against chloroquine-sensitive Plasmodium falciparum 3D7 incubated for 48 hrs by malstat reagent based LDH release assay; assay type: functional, organism-based; conditions: 3D7, 48 h
[28] = test system: Trypanosoma cruzi; experiment: Antitrypanosomal activity against Trypanosoma cruzi Tulahuen amastigote forms infected in human U937 cells after 72 hrs by beta-galactosidase reporter gene assay; assay type: functional, organism-based; conditions: U-937, 72 h
[29] = test system: Leishmania panamensis; experiment: Antileishmanial activity against EpiR/GFP fused Leishmania panamensis MHOM/CO/87/UA140 intracellular amastigotes infected in human […] cells after 72 hrs by flow cytometric method; assay type: functional, organism-based; conditions: MHOM/CO/87/UA140, 72 h

Structure (SMILES)	growth at 10 µM [1] [%]	growth at 10 µM [2] [%]	growth at 10 µM [3] [%]	growth at 10 µM [4] [%]	growth at 10 µM [7] [%]	growth at 10 µM [8] [%]	growth at 10 µM [9] [%]	growth at 10 µM [10] [%]	growth at 10 µM [11] [%]	growth at 10 µM [12] [%]	growth at 10 µM [14] [%]	growth at 10 µM [16] [%]	growth at 10 µM [17] [%]	growth at 10 µM [18] [%]	growth at 10 µM [19] [%]	growth at 10 µM [20] [%]	growth at 10 µM [21] [%]	growth at 10 µM [22] [%]	growth at 10 µM [24] [%]	growth at 10 µM [25] [%]	other results
CCCCOc1nc2c(C)cccc2cc1C1CNC(=O)c2ccccc2N1 (stereo not drawn)	34.3	26.2	19	39	56.2	62.6	89	105	101	45.9	66.9	47	54.7	112	78.3	70.9	67.8	86	58.4	51.6	growth at 10 µM [5]: 18.1%; growth at 10 µM [6]: 61.9%; growth at 10 µM [13]: 43.4%; growth at 10 µM [15]: 52.5%; growth at 10 µM [23]: 15.8%; CC50 [26]: 1 µg/mL (≈ 2.66 µM); EC50 [27]: > 20 µg/mL; EC50 [28]: 2.68 µg/mL (≈ 7.14 µM); EC50 [29]: 3.35 µg/mL (≈ 8.92 µM)
O=C1CC(c2cc3ccccc3[nH]c2=O)Nc2ccccc21 (stereo not drawn)	106	98	102	102	100	108	96.5	102	103	91.6	101	99.4	101	106	99.7	93.3	95.2	105	94.3	96.5	growth at 10 µM [5]: 95.4%; growth at 10 µM [6]: 108%; growth at 10 µM [13]: 97.8%; growth at 10 µM [15]: 98.4%; growth at 10 µM [23]: 102%
O=C1NCC(c2cc3ccc4ccccc4c3[nH]c2=O)Nc2ccccc21 (stereo not drawn)	81.5	86.7	97.3	90.4	93.1	99.5	103	111	97.8	44.1	77.8	89.2	102	101	101	79.3	105	77.3	85.7	116	growth at 10 µM [5]: 56.4%; growth at 10 µM [6]: 96.4%; growth at 10 µM [13]: 102%; growth at 10 µM [15]: 100%; growth at 10 µM [23]: 33.4%; CC50 [26]: 8.3 µg/mL (≈ 23.4 µM); EC50 [27]: > 20 µg/mL; EC50 [29]: 4.98 µg/mL (≈ 14 µM)
CCCCOc1nc2ccc(OC)cc2cc1C1CNC(=O)c2ccccc2N1 (stereo not drawn)	106				96	90.4	87.1	110	123	85.3	99	105	99	107	109	91.5	78.1	108	94.1	96.8	
CCCCn1c(=O)c(C2CNC(=O)c3ccccc3N2)cc2ccc(Cl)cc21 (stereo not drawn)	103	107	87.9	107	94	95.9	99.6	95.7	111	73	105	94.7	92.6	109	115	90.7	75.3	94.9	93.6	99.8	growth at 10 µM [5]: 59.8%; growth at 10 µM [6]: 89.8%; growth at 10 µM [13]: 98.5%; growth at 10 µM [15]: 104%; growth at 10 µM [23]: 89.1%
O=C1NCC(c2cc3ccccc3[nH]c2=O)Nc2ccccc21 (stereo not drawn)	110	95.7	90.2	111	90.6	104	98.4	100	104	92.6	99.9	102	101	91.2	90.7	99.7	76.8	111	91	97.5	growth at 10 µM [5]: 100%; growth at 10 µM [6]: 106%; growth at 10 µM [13]: 106%; growth at 10 µM [15]: 106%; growth at 10 µM [23]: 103%; CC50 [26]: 36.3 µg/mL (≈ 119 µM); EC50 [27]: 64.7 µg/mL (≈ 212 µM); EC50 [28]: 48.8 µg/mL (≈ 160 µM); EC50 [29]: 110 µg/mL (≈ 361 µM)
CCCCn1c(=O)c(C2CNC(=O)c3ccccc3N2)cc2ccccc21 (stereo not drawn)	110	96.7	99.3	46.4	91.8	95.2	111	111	108	94.9	98.9	91	107	96.3	111	85.7	93.1	108	93.7	107	growth at 10 µM [5]: 102%; growth at 10 µM [6]: 103%; growth at 10 µM [13]: 101%; growth at 10 µM [15]: 96.8%; growth at 10 µM [23]: 99.6%
O=C1CC(c2cc3ccc4ccccc4c3[nH]c2=O)Nc2ccccc21 (stereo not drawn)	101	100	87.2	89.5	91.1	104	92.5	108	108	93	96.8	92.5	96.4	114	110	90.7	95.4	84.3	93.1	91.2	growth at 10 µM [5]: 11.1%; growth at 10 µM [6]: 93.8%; growth at 10 µM [13]: 96.5%; growth at 10 µM [15]: 105%; growth at 10 µM [23]: 76.2%
